# Measured values taken from patent US9511074B2, “Methods of treating disorders associated with protein polymerization” (UNIVERSITY OF PITTSBURGH—OF THE COMMONWEALTH SYSTEM OF …, priority 2009, dated 2016).
# Residues, ends and D or L forms follow the SMILES beside them. *: point of attachment. Cbz = O=C(OCc1ccccc1)*
# Columns and labels:
# [1] = test system: ATZ in the HTO/Z cell line; test: ATZ levels in HTO/Z cells in the presence of proteasomal inhibitors with or without CBZ; type: cell-based, human; settings: for levels of ATZ with proteasomal inhibitor alone: no CBZ; for levels of insoluble ATZ in the presence of CBZ: proteasomal inhibitor added for last 6 hours
# Method: For experiments in which proteasomal inhibitors were used, MG132 was used at 30 μM and lactacystin at 10 μM for the last 6 hours of the incubation with CBZ or control. Cells that were incubated with MG132 or lactacystin alone served as control to validate that the proteasome was inhibited. For investigation of LC3 conversion, lysosomal inhibitors (E64D and pepstatin A at 20 μg/ml) were added to the medium for the last 4 hours of the incubation with CBZ or control. […] If the number of separate experiments done in the cell line models is not specifically indicated in the text or figure legend, at least 3 separate experiments were done in each case.
# (§1) For immunoblot analysis to detect AT, GAPDH or LC3, cells were lysed in 50 mM Tris-HCl, 150 mM NaCl, 1% NP-40, pH 8.0. Protein levels were quantified using the BCA protein assay (Pierce Biotechnology, Rockford, Ill.). 10-50 μg samples were loaded onto 7.5% precast gels. PVDF membranes were blocked in TBS, 0.5% Tween 20 (TBST), 5% milk and then incubated with primary antibody in 5% milk TBST solution. Horseradish peroxidase anti-goat Ig or anti-mouse Ig (Jackson Labs, Bar Harbor, Me.) were used as secondary antibodies in TBST. Blots were visualized with Super Signal West Dura or West Femto from Pierce.
# [2] = test system: ATZ in the HTO/Z cell line; test: Steady state levels of ATZ in the HTO/Z cell line (immunoblot of insoluble and soluble fractions); type: cell-based, human; settings: HTO/Z cells
# Description: Cell Lines The human epidermal HeLa cell line with doxycycline-regulated expression of ATZ (HTO/Z) has been described previously (1). HTO/M and HTO/Saar are HeLa cell lines with doxycycline-regulated expression of wild type AT and the AT Saar variant, respectively (1). A murine embryonic fibroblast cell line (MEF) with targeted disruption of Atg5 (2) was engineered for stable expression of ATZ using the previously described pRc/RSV-ATZ expression plasmid (3). A wild type MEF cell line was also engineered for stable expression of ATZ in the same way to serve as control. For experiments with CBZ, the inducible cell lines were cultured in the absence of doxycycline for at least 4 weeks for maximal expression of AT. The cells were then subcultured into separate monolayers in fresh complete growth medium and incubated for 48 hours in the absence or presence of CBZ or rapamycin (RAP). CBZ or RAP were added to the growth medium. The duration of incubation with CBZ was determined to be optimal at 48 hours based on experiments in which the duration was varied from 12 to 72 hours. Doses of CBZ were based on previous studies of its effects in cell lines (5,6). Doses of RAP were based on previous positive effects on autophagic disposal of polyglutamine-repeat proteins (7). After the incubation cells were homogenized and cell homogenates separated into insoluble and soluble fractions according to our previously established technique (8). Samples of 20 μgs each were subjected to immunoblot analysis for AT, BiP and GAPDH.
# as §1
# ATZ in the liver = test: Hepatic load of ATZ in vivo in PiZ×GFP-LC3 mice (immunoblot, globule histology); design: species or system mouse; settings: PiZ mice, 2 mg/kg/day intraperitoneal for 2 weeks, FIG. 5C
# Description: Transgenic Mice PiZ mice that have been bred into the C57/BL6 background have been described previously (1). For the second and third series of experiments with CBZ we used PiZ mice that were re-derived onto the FVB/N background for a move into a new animal facility. The transgene that was used to generate the PiZ mouse is a genomic fragment of DNA that contains the coding regions of the ATZ gene together with introns and ˜2 kilobases of upstream and downstream flanking regions (10). […] In this perspective it is not an exact phenocopy of the classical form of AT deficiency. In particular it cannot be a model for the loss-of-function mechanisms associated with the classical form of AT deficiency. It is known to have abundant expression of ATZ in hepatocytes and other cell types that express ATZ in humans (11). In the liver there are abundant ATZ-containing intrahepatocytic globules and inflammation that is characteristic of what is seen in the human liver (11,12). […] Taken together, these observations indicate that the PiZ mouse is an appropriate model for the gain-of-toxic function mechanism that is responsible for liver damage in the classical form of AT deficiency. Indeed, the fact that these mice are endowed with endogenous AT function and therein normal levels of AT in the serum and body fluids make them an even more ‘pure’ model for liver damage by gain-of-toxic function. PiZ×GFP-LC3 mice, which generated green fluorescent autophagosomes, have been described previously (2). PiZ×IKKβ.hep were generated by mating of PiZ to IKKβ.hep, which has conditional hepatocyte-specific disruption of NF.B activation (M. Karin, 17). There is increased injury in the liver of these mice as evidenced by the hepatic hydroxyproline content, 153.3% of that in the PiZ mouse (FIG. 7).
# Histology Sections of liver tissue were stained with hematoxylin and eosin, PAS, PAS after diastase treatment, TUNEL, PCNA, Ki67 and Sirius Red using standard techniques (18). Previous methods for staining with antibody to smooth muscle actin were used (19). Each was examined by the pathologist (GM) who was completely blinded to the experimental protocol. […] The number of inflammatory nodules, AT-containing globules and autophagosomes were each quantified blindly by counting cells in 6 microscopic fields of 10 different sections for each liver. The number of nuclei, as determined by Hoechst staining, was used to exclude the possibility that different numbers of cells were counted in liver sections from mice treated with CBZ as compared to controls. Hepatic hydroxyproline concentration was determined by a well-established protocol (20,21). […]
# For immunoblot on liver, the liver was snap frozen in liquid nitrogen and stored at −80° C. […] Total protein concentration was measured by BCA assay (Pierce). […]
# [3] = 48 hours incubation, immunoblot
smiles,measurement,setting,value
CC(C)C[C@@H](C=O)NC(=O)[C@H](CC(C)C)NC(=O)[C@H](CC(C)C)NC(=O)OCc1ccccc1 [MG132] (Cbz-Leu-Leu-Leu-aldehyde),levels of ATZ with proteasomal inhibitor alone,[1],Increased levels
same,levels of insoluble ATZ in the presence of CBZ,[1],no effect
CO[C@H]1C[C@@H]2CC[C@@H](C)[C@@](O)(O2)C(=O)C(=O)N2CCCC[C@H]2C(=O)O[C@H]([C@H](C)C[C@@H]2CC[C@@H](O)[C@H](OC)C2)CC(=O)[C@H](C)/C=C(\C)[C@@H](O)[C@@H](OC)C(=O)[C@H](C)C[C@H](C)/C=C/C=C/C=C/1C [rapamycin],ATZ levels (insoluble and soluble fractions),"[2]; 48-hour incubation, FIG. 1B",no effect
same,hepatic ATZ levels,ATZ in the liver,no effect
"NC(=O)N1c2ccccc2CC(=O)c2ccccc21 [OBZ, 10,11-dihydro-10-oxo-5H-dibenz[b,f]azepine-5-carboxamide]","steady-state levels of ATZ, insoluble fraction",[2]; [3],marked decrease
same,"steady-state levels of ATZ, soluble fraction",[2]; [3],minimal effect
same,lowest dose with evident effect on insoluble ATZ,"[2]; 48 hrs, FIG. 9",0.1 µM
CC(=O)N[C@@H](CSC(=O)[C@]1([C@@H](O)C(C)C)NC(=O)[C@H](C)[C@@H]1O)C(=O)O [lactacystin],levels of ATZ with proteasomal inhibitor alone,[1],Increased levels
same,reversal of the effect of CBZ on levels of soluble ATZ,"[1]; lactacystin 10 μM for last 6 hours of CBZ incubation, mean SD, n=3",23.1±14.0%
same,levels of insoluble ATZ in the presence of CBZ,[1],no effect
